“Also recorded” adds a separate entry of the source.
Assays:
[1] = test system: cyclic AMP response element binding protein (CREB); assay: immunoblots of muscle lysates for CREB activation after PGE2 i.m. injection; type: in vivo, C57BL/6 mice; conditions: young (3 mo.) mice, PGE2 i.m., 0, 30 or 60 minutes; FIG. 2A
Procedure: FIGS. 2A-2C. PGE2 treatment leads to activation of CREB in muscles and 15-PGDH inhibition leads to increased mitochondrial biogenesis and function in aged muscles. (FIG. 2A) Immunoblots of muscle lysates from young (3 mo.) C57BL/6 mice injected with PGE2 i.m. after 0, 30 or 60 minutes. (FIG. 2B) Quantification of immunoblot in (FIG. 2A) (n=3 mice per timepoint). (FIG. 2B) Representative images of intermyofibrillar (IMF) mitochondria from transmission electron micrographs (TEM) of longitudinal sections of EDL muscles of young, aged vehicle and aged SW (n=3 mice per condition; total mitochondria quantified, n=1,066 young, n=1,350 aged vehicle and n=1,371 aged SW). Different magnifications are as shown: 1,500×, 3,000× and 10,000× with […] respectively: 5 μm, 2 μm and 500 nm. (FIG. 2C) Citrate synthase activity of Quadriceps (Quad) muscles (n=13 aged vehicle and n=8 aged SW). *P<0.05, **P<0.01. ANOVA test with Fisher's LSD for multiple comparisons (FIG. 2B); unpaired t-test (FIG. 2C). Means±s.e.m.
To identify downstream signaling pathways through which 15-PGDH inhibition exerts its effects on aged muscles, we performed an unbiased transcriptomic analysis of aged muscles treated with vehicle or SW033291 (SW). […]

[2] = test system: aged muscles; assay: muscle atrophy (cross sectional area, muscle mass) in aged mice; type: in vivo; conditions: aged treated with SW compared to vehicle controls
From the text: In addition, the morphology of the mitochondria improved. The shift in IMF mitochondrial area from compact and round in young to a larger size with more disorganized morphology in aged tissues was clearly evident, in agreement with reports by others (J. P. Leduc-Gaudet et al., Mitochondrial morphology is altered in atrophied skeletal muscle of aged mice. Oncotarget 6, 17923-17937 (2015); V. Romanello, M. Sandri, Mitochondrial Quality Control and Muscle Mass Maintenance. Front Physiol 6, 422 (2015)) (FIGS. 1D and 2B).

[3] = test system: citrate synthase; assay: citrate synthase activity in isolated mitochondria of aged muscles; type: in vivo, mice; conditions: SW-treated aged muscles compared to controls, FIGS. 1E and 2C
From the text: FIGS. 1A-1H. Boost in mitochondrial biogenesis and function is triggered by 15-PGDH inhibition in aged muscles. (FIG. 1A) Heatmap of mitochondrial genes. (FIG. 1B) Expression level of Pgc1α by qPCR (n=4 young, n=4 aged veh, n=3 aged SW033291 (SW)). (FIG. 1C) Relative quantification of mitochondrial DNA to nuclear DNA (n=4 per group). (FIG. 1D) Representative images and quantifications of intermyofibrillar (IMF) mitochondria numbers, their size, and myofibrillar width from transmission electron micrographs (TEM) of longitudinal sections of EDL muscles of young, aged vehicle and aged SW (n=3 mice per condition; total mitochondria quantified, n=1,066 young, n=1,350 aged vehicle and n=1,371 aged SW). Scale bar=2 μm. (FIG. 1E) Citrate synthase activity of Gastrocnemius muscles (n=3 young, n=4 aged vehicle and n=4 aged SW). […] Quantification of SDH mean average intensity per fiber (n=4 mice per condition). […] Quantification (right) (n=3 aged veh and SW). *P<0.05, **P<0.01, ***P<0.001, ****P<0.0001. […]
(§1) FIGS. 2A-2C. […] (FIG. 2B) Quantification of immunoblot in (FIG. 2A) (n=3 mice per timepoint). (FIG. 2B) Representative images of intermyofibrillar (IMF) mitochondria from transmission electron micrographs (TEM) of longitudinal sections of EDL muscles of young, aged vehicle and aged SW (n=3 mice per condition; total mitochondria quantified, n=1,066 young, n=1,350 aged vehicle and n=1,371 aged SW). […]

[4] = test system: aged muscles; assay: unbiased transcriptomic analysis of aged muscles treated with vehicle or SW033291; type: in vivo, mice; conditions: FIG. 1A
From the text: (§2) FIGS. 1A-1H. Boost in mitochondrial biogenesis and function is triggered by 15-PGDH inhibition in aged muscles. (FIG. 1A) Heatmap of mitochondrial genes. (FIG. 1B) Expression level of Pgc1α by qPCR (n=4 young, n=4 aged veh, n=3 aged SW033291 (SW)). (FIG. 1C) Relative quantification of mitochondrial DNA to nuclear DNA (n=4 per group). (FIG. 1D) Representative images and quantifications of intermyofibrillar (IMF) mitochondria numbers, their size, and myofibrillar width from transmission electron micrographs (TEM) of longitudinal sections of EDL muscles of young, aged vehicle and aged SW (n=3 mice per condition; total mitochondria quantified, n=1,066 young, n=1,350 aged vehicle and n=1,371 aged SW). Scale bar=2 μm. (FIG. 1E) Citrate synthase activity of Gastrocnemius muscles (n=3 young, n=4 aged vehicle and n=4 aged SW). (FIG. 1F) Representative TA cross-section stained for succinate dehydrogenase (SDH) (left). Quantification of SDH mean average intensity per fiber (n=4 mice per condition). (FIG. 1G) Representative images of mitochondrial membrane potential (TMRM staining) in isolated EDL myofibers from young, aged vehicle and SW treated mice (n=4 mice per condition; total number of fibers n=52 young, n=139 aged vehicle and n=89 aged SW). […] Quantification (right) (n=3 aged veh and SW). *P<0.05, **P<0.01, ***P<0.001, ****P<0.0001. […]

[5] = test system: intermyofibrillar (IMF) mitochondria of EDL muscles; assay: transmission electron microscopy (TEM) of Extensor digitorum longus (EDL) muscles; type: in vivo, mice
From the text: FIGS. 1A-1H. Boost in mitochondrial biogenesis and function is triggered by 15-PGDH inhibition in aged muscles. (FIG. 1A) Heatmap of mitochondrial genes. (FIG. 1B) Expression level of Pgc1α by qPCR (n=4 young, n=4 aged veh, n=3 aged SW033291 (SW)). (FIG. 1C) Relative quantification of mitochondrial DNA to nuclear DNA (n=4 per group). (FIG. 1D) Representative images and quantifications of intermyofibrillar (IMF) mitochondria numbers, their size, and myofibrillar width from transmission electron micrographs (TEM) of longitudinal sections of EDL muscles of young, aged vehicle and aged SW (n=3 mice per condition; total mitochondria quantified, n=1,066 young, n=1,350 aged vehicle and n=1,371 aged SW). Scale bar=2 μm. (FIG. 1E) Citrate synthase activity of Gastrocnemius muscles (n=3 young, n=4 aged vehicle and n=4 aged SW). (FIG. 1F) Representative TA cross-section stained for succinate dehydrogenase (SDH) (left). Quantification of SDH mean average intensity per fiber (n=4 mice per condition). (FIG. 1G) Representative images of mitochondrial membrane potential (TMRM staining) in isolated EDL myofibers from young, aged vehicle and SW treated mice (n=4 mice per condition; total number of fibers n=52 young, n=139 aged vehicle and n=89 aged SW). (FIG. 1H) Immunoblots of muscle lysates from: aged vehicle and SW treated mice together with colchicine, young mice without treatment, young mice treated with colchicine and young mice fasted and treated with colchicine. Quantification (right) (n=3 aged veh and SW). *P<0.05, **P<0.01, ***P<0.001, ****P<0.0001. ANOVA test with Tukey's test (FIG. 1D) or Fisher's LSD (FIGS. 1A, 1F, 1G) for multiple comparisons; Unpaired t-test (FIGS. 1C, 1E, 1H). Means±s.e.m.
as §1

[6] = test system: peroxisome proliferator-activated receptor gamma coactivator 1-alpha (Pgc1α); assay: Pgc1α mRNA level by qPCR in aged muscles; type: in vivo, mice; conditions: SW vs vehicle and young, FIG. 1B
From the text: as §2

[7] = test system: p62; assay: autophagy flux, western blot of p62 upon colchicine treatment; type: in vivo; conditions: muscles of aged mice treated with SW compared to controls; FIG. 1H
From the text: as §2

[8] = test system: aged muscles; assay: relative quantification of mitochondrial DNA to nuclear DNA in aged muscles; type: in vivo, mice; conditions: SW treatment of aged muscles; FIG. 1C
From the text: as §2

[9] = test system: myofibers isolated from EDL muscles; assay: mitochondrial membrane potential (TMRM staining) in isolated EDL myofibers; type: in vivo; conditions: myofibers from EDL muscles of SW treated aged mice compared to controls; FIG. 1G
From the text: as §2

[10] = test system: succinate dehydrogenase; assay: succinate dehydrogenase (SDH) staining of TA cross-sections; type: in vivo, mice; conditions: SW treated aged muscle; FIG. 1F
From the text: as §2

Row | activation of CREB in skeletal muscles [1] | SMILES | muscle atrophy [2] | citrate synthase activity [3] | components of mitochondria complexes I, II, IV and V of the electron transport chain (transcriptome) ([4]; SW-treated aged muscles) | change in aged muscle tissue transcriptome: mitochondrial pathways (oxidative phosphorylation, ATP synthesis) ([4]; aged muscles, SW vs vehicle) | number of intermyofibrillar (IMF) mitochondria ([5]; EDL muscles of aged mice after SW treatment, FIGS. 1D and 2B) | mitochondrial morphology ([5]; aged EDL muscles, one month of SW treatment, FIG. 1D) | myofibril width ([5]; aged treated with SW compared to vehicle controls, FIGS. 1D and 2B) | mRNA level of Pgc1α [6] | autophagy flux (p62 upon colchicine treatment) [7] | mitochondrial DNA content relative to nuclear DNA content [8] | mitochondrial membrane potential [9] | succinate dehydrogenase activity [10]
1 | activates | CCCCC[C@H](O)/C=C/[C@H]1[C@H](O)CC(=O)[C@@H]1C/C=C\CCCC(=O)O [PGE2, Prostaglandin E2] |  |  |  |  |  |  |  |  |  |  |  | 
2 |  | CCCC[S+]([O-])c1sc2nc(-c3cccs3)cc(-c3ccccc3)c2c1N (stereo not shown) [SW, 2-(butylsulfinyl)-4-phenyl-6-(thiophen-2-yl)thieno[2,3-b]pyridin-3-amine] | attenuation of muscle atrophy | significantly increased; also recorded: restored to young levels | markedly increased | strong enrichment for mitochondrial pathways | increase | restored to a compact mitochondrial morphology resembling that seen in young | increase | restored to that seen in young muscles | increased | increased | increase; also recorded: restored to young levels | increased; also recorded: restored to young levels

From patent US20240000758A1, “ELEVATION OF MITOCHONDRIAL BIOGENESIS AND FUNCTION BY INHIBITION OF PROSTAGLANDIN DEGRADING ENZYME 15-PGDH” (The Board of Trustees of the Leland Stanford Junior …, priority 2020, published 2024)
